Assay results published in patent US20200331882A1, “COMPOUND FOR SIMULTANEOUSLY INHIBITING LSD1 AND HDAC TARGETS AND APPLICATION THEREOF” (PEKING UNIVERSITY SHENZHEN GRADUATE SCHOOL, priority 2018, published 2020).

What was measured:
HDAC1 = molecular target: T1, HDAC1 (Homo sapiens, UniProt Q13547); experiment: In vitro HDAC1 inhibitory activity, FLUOR DE LYS HDAC1 fluorometric assay kit; assay type: biochemical; conditions: HDAC1 enzyme activity in vitro
T1 construct: purchased Enzo Biochem Inc
T1 sequence (Q13547 whole entry): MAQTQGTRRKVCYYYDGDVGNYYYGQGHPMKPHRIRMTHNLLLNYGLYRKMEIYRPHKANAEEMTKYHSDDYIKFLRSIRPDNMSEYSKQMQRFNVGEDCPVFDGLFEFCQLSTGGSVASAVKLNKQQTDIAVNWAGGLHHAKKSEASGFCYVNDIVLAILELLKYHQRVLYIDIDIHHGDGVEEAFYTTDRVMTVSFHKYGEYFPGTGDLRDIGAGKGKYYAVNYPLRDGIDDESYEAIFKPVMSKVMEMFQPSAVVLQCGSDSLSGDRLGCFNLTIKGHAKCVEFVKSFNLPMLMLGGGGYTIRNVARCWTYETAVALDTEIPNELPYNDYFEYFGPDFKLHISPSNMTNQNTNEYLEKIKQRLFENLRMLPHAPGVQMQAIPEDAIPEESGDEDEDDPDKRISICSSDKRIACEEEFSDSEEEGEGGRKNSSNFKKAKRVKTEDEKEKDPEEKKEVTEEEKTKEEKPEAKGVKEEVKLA
From the text: The principle was shown in the following reaction formula: HDAC1 catalyzes the deacetylation of a substrate FLUOR DE LYS® Substrate (containing an acetylated side chain), the product can react with FLUOR DE LYS® Developer II to generate fluorescence (shown in the following reaction process), and the inhibitory activity of a molecule to be detected on HDAC1 can be indirectly obtained by detecting the fluorescence intensity of the product. In this experiment, 360 nm was selected as the excitation wavelength and 460 nm as the emission wavelength for detection. FLUOR DE LYS® HDAC1 fluorometric drug discovery assay kit required for experiments was purchased from Enzo Biochem Inc.
During the test, the sample was prepared according to the specific experimental conditions of blocking the HDAC1 enzyme activity of the compound of the present invention in vitro in accordance with Table 2 below.

[1] = tested on: human breast cancer cell line MDA-MB-231; experiment: MTT tumor cell proliferation; assay type: cell-based; conditions: Homo sapiens, 72 h
From the text: (§1) MTT colorimetric method was used to detect the inhibitory activity of a series of compounds (i.e. ZZY-001 to ZZY-016, a total of 16 kinds) of the embodiment of the present invention on the proliferation of tumor cells in vitro. The full name of MTT is 3-(4,5-dimethyl-2-thiazolyl)-2,5-diphenyl-2-H-tetrazolium romide, which is a yellow dye also known as thiazolyl blue. […] DMSO can dissolve Formazan deposited in cells and the absorbance value can be measured with a enzyme marker at a wavelength of 490 nm. In a certain range of cell number, the production of Formazan is proportional to the number of cells, so the number of living cells can be inferred according to the measured OD value.
In the experiments of this embodiment, the selected cell lines are human breast cancer cell line MDA-MB-231 and BT-474, human colon adenocarcinoma cell HCT116, mouse colon cancer cell CT26.WT, mouse breast cancer cell 4T1. During the test, the cells in logarithmic phase and in good condition were digested with 0.25% trypsin digestion solution to make the adherent cells fall off, and the cell suspension (suspension cells without trypsin digestion) was made by counting 2-4×10^4 cells/ml. The cell suspension was inoculated on a 96-well plate at 100 μl/well and cultured in a constant temperature CO2 incubator for 24 h. Then the tested drugs were added, 100 μl/well, and cultured for 72 h. MTT was added to a 96-well plate, 20 μl/well, and reacted for 4 h in the incubator. Absorb the supernatant, add DMSO, 150 μl/well and shake for 10 min on the plate shaker. The optical density (OD value) of each well was measured by enzyme marker at the wavelength of 490 nm. […]

[2] = molecular target: T2, recombinant human LSD1 protein (Homo sapiens, UniProt O60341); experiment: In vitro LSD1 inhibitory activity, LSD1-HRP coupling reaction (Amplex Red); assay type: biochemical; conditions: LSD1 enzyme activity in vitro; 30 min preincubation; H3K4Me2 peptide
T2 construct: made in house; host or cells: E. coli
From the text: LSD1 activity was detected by using LSD1-HRP coupling reaction. […] During the reduction of H2O2 to H2O, Amplex Red acts as an electron donor and oxidizes to Resorufin for detection of fluorescence. […] Ampliflu™ Red, peroxidase, from horseradish required for the experiment was purchased from SIGMA; H3K4Me2 substrate peptide was purchased from GL Biochemical (Shanghai) Co., Ltd.

[3] = tested on: human colon adenocarcinoma cell HCT116; experiment: MTT tumor cell proliferation; assay type: cell-based; conditions: Homo sapiens, HCT-116, 72 h
From the text: as §1
(§2) The cell suspension was inoculated on a 96-well plate at 100 μl/well and cultured in a constant temperature CO2 incubator for 24 h. Then the tested drugs were added, 100 μl/well, and cultured for 72 h. MTT was added to a 96-well plate, 20 μl/well, and reacted for 4 h in the incubator. Absorb the supernatant, add DMSO, 150 μl/well and shake for 10 min on the plate shaker. The optical density (OD value) of each well was measured by enzyme marker at the wavelength of 490 nm.

[4] = tested on: human breast cancer cell line BT-474; experiment: MTT tumor cell proliferation; assay type: cell-based; conditions: Homo sapiens, 72 h
From the text: as §1, §2

[5] = tested on: mouse colon cancer cell CT26.WT; experiment: MTT tumor cell proliferation; assay type: cell-based; conditions: Mus musculus, 72 h
From the text: as §1, §2

Compound `Cc1ccc(C(=O)Nc2cc(N3CCNCC3)ccc2-c2ccc(/C=C/C(=O)NO)cc2C)cc1.Cl` [ZZY-003] has an IC50 (HDAC1) of 180 nM, an IC50 [1] of 836 nM and an IC50 [2] of 440 nM. The IC50 [3] was 265 nM, the IC50 [4] was 1860 nM and the IC50 [5] was 8760 nM.
